Data published in patent US9795585B2, “Methods of using L-butylphthalide for the prevention and treatment of cerebral ischemia disease” (priority 2004, dated 2017).

Tests used:
[1] = system: cerebral injury-induced cerebral ischemia in rats; experiment: Neural symptoms induced by cerebral injury in rats; format: in vivo, male Wistar rats; settings: 50 mg/kg oral 5 minutes after cerebral injury; scored after 24 hours; vs vehicle control
Experimental: Experimental Animals: male Wistar rats
Experimental Methods: Cerebral injury in rats was caused by allowing a cone-shaped metal object weighing 220 g to freely fall from a position of 30 cm height and to strike the skull cap behind the left coronal suture. dl-, d-, and l-NBP (50 mg/kg) and the vehicle (control group) were orally administered after 5 minutes, and the behavioral changes were scored after 24 hours.

[2] = system: focal cerebral ischemia in rats; experiment: Memory disorder induced by focal cerebral ischemia (shuttle box, artery ligation by method of Tamura); format: in vivo, male Wistar rats; settings: 15 and 30 mg/kg oral 15 min after operation; observed after 24 hours; vs vehicle control
Experimental: Experimental Animal: The same as Example 1. Experimental Equipment: Shuttle box. Experimental Methods: • 1. Rats were trained to acquire learning and memory; • 2. Artery ligation: Artery ligation was conducted on rats according to the method of Tamura. After 24 hours, the experiment of learning as in step (1) was repeatedly conducted on rats. • 3. Grouping and administration: the rats were divided into 9 groups, which were normal group, pseudo-operation group, ischemia control group, and groups of dl-, d-, and l-NBP (15 and 30 mg/kg). The rats were orally administered at 15 min after the operation, and the changes of latency of active and passive avoidance response were observed after 24 hours.

[3] = system: cerebral edema induced by cerebral artery ligation in rats; experiment: Cerebral edema induced by ligation of right middle cerebral artery; format: in vivo, male Wistar rats; settings: 40 and 80 mg/kg oral 15 minutes after ligation; sacrificed after 24 hours
Experimental: Experimental Animals: the same as Example 1. Experimental Equipments: Oxygen analyzer. Experimental Methods: Cerebral edema was induced by the ligation of right middle cerebral artery of rats. After 15 minutes, dl-, d-, and l-NBP (40 and 80 mg/kg) were orally administered. The rats were sacrificed after 24 hours. The forebrain was removed, and the cerebral hemispheres on the left and right side were weighed. Dry weight was obtained by baking for 24 hours under 100° C. The weight of water in the brain tissue was thus calculated by subtracting of dry weight from wet weight. Then, the tissues was nitrified for 4 hours, and pH was adjusted by using HCl. Next, the ion selective electrode was connected onto the oxygen analyzer, and the concentrations of Na^+ and K^+ in the brain tissue were measured.

[4] = system: cerebral apoplexy in spontaneous hypertension rats; experiment: Cerebral apoplexy in salt-loaded spontaneous hypertensive rats; format: in vivo; settings: 25 and 50 mg/kg/d oral
Experimental: Experimental Animals: spontaneous hypertensive rats of 6 weeks old. Experimental Methods: Spontaneous hypertensive rats of 6 weeks old were divided into 8 groups with 10 rats per group. 0.8 to 0.9 g per day of common salt was administered starting from week 6. […] The scores of neurological deficit and the time of death were recorded.

[5] = system: ischemic brain of decapitated mice; experiment: Ischemic cerebral metabolism of energy induced by decapitation of mice; format: in vivo, KunMing mice; settings: NBP 50 and 100 mg/kg oral, sodium Phenobarbital 225 mg/kg ip.; decapitated 30 minutes after administration; 15 seconds ischemia; vs control group
Experimental: Experimental Animals: KunMing mice.
Test drug: injectable L-butylphthalide was formulated into an emulsion with Tween-80.
Experimental Methods: KunMing mice of 10 to 22 g were divided into 8 groups with 10 mice per group. dl-, d-, and l-NBP (50 and 100 mg/kg/d), sodium Phenobarbital (225 mg/kg ip.) and the vehicle were orally administered. Thirty minutes after administration, the mice were decapitated.
The time between the decapitation and homogenation, which was 15 seconds, was regarded as cerebral ischemic time. Centrifugation and isolation were conducted by the method of Folbergrova, and the contents of lactic acid, ATP and PCr were determined by enzymological method.

[6] = system: normal rats; format: in vivo, Male wistar rats; settings: 15 and 30 mg/kg oral; 30 minutes after administration
Experimental: Experimental Animals: Male wistar rats.
Experimental Equipments: SXP operating microscope, 62TZ-V model high frequency electrotome, solid positioner, Diamond Electro-Tech chemical microsensor 1231, two channel physiological parameter recorder.
Experimental Methods: • (1) dl-, d-, and l-NBP (15 and 30 mg/kg) and the vehicle were orally administered to the normal rats, and the changes of cerebral blood flow at different time after the administration were measured. • (2) ligation of cerebral artery was conducted on rats according to the method of Tamura. Oral administration was performed at 10 min after the operation. The rats were divided into 9 groups, which were normal group, pseudo-operation group, vehicle control group, and groups of dl-, d-, and l-NBP (15 and 30 mg/kg).

[7] = system: permanent cerebral ischemic rats; experiment: Behavioral disorder and cerebral infarct area in permanent cerebral ischemic rats (FeCl3 on middle cerebral artery); format: in vivo, Wistar rats
Experimental: Experimental Animal: The same as Example 1. Experimental Equipments: COOLPIX955 digital camera, 722 grating spectroscope, XHF-1 high-speed disperser, YKH-II liquid high-speed mixer, WZ-50C2 micro infusion pump. Experimental Methods: Wistar rats were anesthetized by intraperitoneally injecting 12% chloral hydrate in 350 mg/kg, and fixed in lateral decubitus position. The skin at the midpoint on the line from exterior auditory canal to canthus was cut. The muscle was separated layer by layer to expose zygomatic arch and the squamous part of temporal bone. The zygomatic arch was scissored and then placed under an operating microscope. A window of 2 mm diameter was drilled by using a dentistry drill at a position of 2 mm under the anterior joint between zygomatic arch and the squamous part of temporal bone, so as to expose the middle cerebral artery. A little piece of filter paper was applied onto the middle artery, and 10 μl of 50% FeCl3 aqueous solution was dripped onto the filter paper. The filter paper was removed after 30 min, and washed with physiological brine. Two to three drops of penicillin (1.6×10^5 U/mL) were added so as to prevent infection of the cut. Then the cut was sutured layer by layer.

[8] = system: cerebral ischemia-reperfusion rats; experiment: Behavioral disorder and cerebral infarct area in cerebral ischemia-reperfusion rats (MCAO by nylon suture, 1.5 h); format: in vivo, male Wistar rats
Text: Experimental Animal: The same as Example 1
Experimental Equipments: The same as Example 7
Experimental Methods: The rats were anesthetized, and fixed in lateral decubitus position. Under the operating microscope, a midline neck skin incision was made to expose the left common cartotid artery. The surrounding nerves and fascia from the bifurcation of common carotid artery to the vascular of basis cranii were removed.
The internal carotid artery was then separated and carefully separated free from vagus nerve. Pterygopalatine artery was ligated at the root of the internal carotid artery. A 6# needle for injection containing 3# nylon suture (diameter of 0.285 mm) was punctured into the free end of the external carotid artery, advancing the nylon suture into the blood vascular. The needle was carefully withdrawn, and the nylon suture was guided into the internal carotid artery from the distal end of the external carotid artery up till to Willis ring, so as to effectively block the middle cerebral artery.
Depending on the body weight, the distance from the inserted nylon suture to the bifurcation of common carotid artery was 18 to 20 mm. The free end of the external carotid artery and the nylon suture therein were ligated together, in order to prevent bleeding. The muscle and the skin were then sutured layer by layer, and penicillin was dropped to prevent infection. To effectively block the middle cerebral artery, the tip of the nylon suture was made round by burning with the flame, and coated with 0.1% of poly-L-lysine. The nylon suture was baked in a 60° C. oven for 1 hour.
Due to the ability of poly-L-lysine to binding the cell and the protein to the plastic surface, and thus allow the negative charged nylon suture changing into a positive charged one and attract the anion ionic part of the endothelial cell, the nylon suture was closely bond to the endothelial surface, so as to prevent the leakage of the blood from the surrounding of the suture. Only the internal carotoid artery was separated from the animals of pseudo-operation group.
At 1.5 hours after the initiation of MCAO, the nylon suture within the lumen of the internal carotoid artery was carefully withdrawn, and the internal carotoid artery was allowed to reperfusion. The rats were then placed back into the cage.

[9] = 24 hours after intravenous injection

CCCC[C@H]1OC(=O)c2ccccc21 [d-NBP, dextro-butylphthalide]
neural symptoms (behavioral changes scored) [1]: no significant effect
times of active avoidance [2]: not observed
content of K+ in the brain [3]: no significant effect
content of Na+ in the brain [3]: no significant effect
content of water in the brain [3]: no significant effect
preventive and therapeutic effect on cerebral apoplexy (overall) [4]: not significant
content of ATP in the brain [5]: no such significant effect
content of PCr in the brain [5]: no such significant effect
content of lactic acid in the brain [5]: no such significant effect
cerebral blood flow rate in normal rats [6]: no such effects
cerebral infarct area (effect in words) ([7]; 2.5 mg/kg, tendency of reducing): not significant
reduction of cerebral infarct area ([7]; first of three doses, vs model control group): 27.2%
decrease of neurological deficit scores ([7]; high dose, i.v., 24 hours after administration): 28.1%
ED30 (neurological deficit scores) ([7]; i.v., 24 hours after administration): 12.4 mg/kg
neurological deficit scores (effect in words) ([7]; intravenous injection, vs model control group): improvement
decrease of neurological deficit scores ([7]; low dose, i.v., 24 hours after administration): 17.2%
decrease of neurological deficit scores ([7]; moderate dose, i.v., 24 hours after administration): 21.9%
reduction of cerebral infarct area ([7]; second of three doses, vs model control group): 32.7%
reduction of cerebral infarct area ([7]; third of three doses, vs model control group): 39.9%
ED40 (cerebral infarct area) ([7]; vs model control group): 10.3 mg/kg
neurological deficit scores (effect in words) [8, 9]: improvement
potency on neurological deficit scores compared among l, dl and d-NBP [8, 9]: no significant difference
cerebral infarct area (effect in words) ([8]; intravenous administration, effect increases with dose): significantly reduce

CCC1(c2ccccc2)C(=O)NC(=O)NC1=O [sodium Phenobarbital]
content of ATP in the brain [5]: increased
content of PCr in the brain [5]: increased
content of lactic acid in the brain [5]: significantly decreased
